Results published in patent EP0105692B1, “6-H-dibenz(b,e)(1,4)oxathiepin derivatives and their preparation” (MERCK FROSST CANADA INC., priority 1982, dated 1984).

How the values were obtained:
[1] = test system: PGEA-induced bronchoconstriction (R2); experiment: Inhibition of PGEA-induced bronchoconstriction in the guinea pig in vivo; details: Cavia porcellus, IV injection
[2] = test system: arachidonic acid induced bronchoconstriction; experiment: Arachidonic acid induced bronchoconstriction and hypotension in the anaesthetized dog; format: in vivo; details: intraduodenal administration

SMILES: O=S1(=O)c2ccccc2COc2ccc(CO)cc21 [Example 13, 2-Hydroxymethy!-6H-dibenz[b,e][1,4]oxathiepin-11,11-dioxide]
- ED50 [1]: 10.5 mg/kg
- inhibition of arachidonic acid induced bronchoconstriction [2]: inhibited
- inhibition of arachidonic acid induced hypotension [2]: not
